Laboratory results reported in PubChem BioAssay (NCI).
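Dose response: 5 concentrations. Exposure: 48 h. Format: 96-well plates. Endpoint: linear interpolation; highest concentration if not reached. GI50 marks 50% less growth. TGI is the concentration that stops growth completely.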

Tests used:
Experiment in all cases: NCI tumour cell line growth inhibition, 48 h
SW-620 colon = system: SW-620 colon
M14 melanoma = system: M14 melanoma
CCRF-CEM leukemia = system: CCRF-CEM leukemia
SK-MEL-2 melanoma = system: SK-MEL-2 melanoma
CAKI-1 renal = system: CAKI-1 renal
SF-268 CNS = system: SF-268 CNS
SK-MEL-28 melanoma = system: SK-MEL-28 melanoma
UACC-257 melanoma = system: UACC-257 melanoma
MALME-3M melanoma = system: MALME-3M melanoma
KM12 colon = system: KM12 colon

Row | Structure (SMILES) | TGI (SW-620 colon) | TGI (M14 melanoma) | TGI (CCRF-CEM leukemia) | TGI (SK-MEL-2 melanoma) | TGI (CAKI-1 renal) | TGI (SF-268 CNS) | TGI (SK-MEL-28 melanoma) | TGI (UACC-257 melanoma) | TGI (MALME-3M melanoma) | TGI (KM12 colon) | GI50 (SW-620 colon) | GI50 (M14 melanoma) | GI50 (CCRF-CEM leukemia) | GI50 (CAKI-1 renal) | GI50 (SF-268 CNS) | GI50 (SK-MEL-28 melanoma) | GI50 (UACC-257 melanoma) | GI50 (MALME-3M melanoma) | GI50 (KM12 colon) | GI50 (SK-MEL-2 melanoma)
1 | O=Nn1c2ccccc2c2ccccc21 | > 100 µM | > 100 µM | > 100 µM | > 100 µM | > 100 µM | > 100 µM | > 100 µM | > 100 µM | > 100 µM | > 100 µM | – | – | – | – | – | – | – | – | – | –
2 | CCOC(=O)CCCc1cc(=O)c2c(C)c3[nH]c4ccc(Cl)cc4c3c(C)c2[nH]1 | > 100 µM | > 100 µM | > 100 µM | 71.8 µM | 43.2 µM | 54 µM | > 100 µM | > 100 µM | 73.2 µM | > 100 µM | – | – | – | – | – | – | – | – | – | –
3 | CC(=O)OC/C=C\Cn1ncc(=O)[nH]c1=O | 40.5 µM | 46.8 µM | 50.4 µM | 40.2 µM | – | 36.7 µM | 50.2 µM | – | 31.5 µM | 31.3 µM | – | – | – | – | – | – | – | – | – | –
4 | Nc1ccc(C2(c3ccc(N)cc3)C3CC4CC(C3)CC2C4)cc1 | 28.8 µM | 29.9 µM | 25.3 µM | 34.8 µM | 31.9 µM | 27.3 µM | > 100 µM | 36.2 µM | – | 25.3 µM | – | – | – | – | – | – | – | – | – | –
5 | CC=C/C=C/[C@@H]1O[C@](O)([C@H](CC)C(=O)NC/C=C/C=C(\C)[C@@H](OC)[C@@H](C)[C@@H]2O[C@H](/C=C/C=C/C=C(\C)C(=O)c3c(O)cc[nH]c3=O)[C@H](O)[C@@H]2O)[C@H](O)[C@H](O)C1(C)C | > 100 µM | > 100 µM | – | > 100 µM | – | > 100 µM | > 100 µM | > 100 µM | > 100 µM | > 100 µM | – | – | – | – | – | – | – | – | – | –
6 | Fc1ccc(C2CC(c3cccc(Nc4ccncc4)c3)=NN2c2ccccc2)cc1 (configuration not stated) | 3.21 µM | 3.71 µM | 10.2 µM | – | 3.02 µM | 3.4 µM | 3.35 µM | 4.31 µM | 3.16 µM | 3.07 µM | 1.69 µM | 1.87 µM | 3.22 µM | 1.6 µM | 1.75 µM | 1.76 µM | 2.09 µM | 1.6 µM | 1.63 µM | –
7 | Nc1nc(N)c(N=Nc2ccccc2)c(=O)[nH]1 | > 100 µM | > 100 µM | > 100 µM | > 100 µM | > 100 µM | > 100 µM | 87.7 µM | > 100 µM | 69.6 µM | > 100 µM | – | – | – | – | – | – | – | – | – | –
8 | CCOP(=O)(OCC)C(Cc1c[nH]c2ccccc12)C(=O)O (configuration not stated) | > 100 µM | > 100 µM | > 100 µM | > 100 µM | > 100 µM | – | > 100 µM | > 100 µM | – | – | – | – | – | – | – | – | – | – | – | –
9 | O=S1(=O)C[C@H](NCc2ccccc2)[C@H](NCc2ccccc2)C1 | > 100 µM | > 100 µM | > 100 µM | > 100 µM | > 100 µM | > 100 µM | > 100 µM | > 100 µM | > 100 µM | > 100 µM | – | – | – | – | – | – | – | – | – | –
10 | COc1ncnc2c(Cl)c(C(O)c3ccccc3)c(Cl)cc12 (configuration not stated) | 92.6 µM | 89.9 µM | – | > 100 µM | > 100 µM | 57.7 µM | > 100 µM | > 100 µM | 83 µM | > 100 µM | – | – | – | – | – | – | – | – | – | –
11 | Cc1ccc(S(=O)(=O)NCCCSCCN)cc1 | > 100 µM | > 100 µM | > 100 µM | – | – | > 100 µM | > 100 µM | > 100 µM | – | > 100 µM | – | – | – | – | – | – | – | – | – | –
12 | COc1ccc(/C=C/c2cc(O)cc(OC3OC(CO)C(O)C(O)C3O)c2)cc1O (configuration not stated) | > 100 µM | > 100 µM | > 100 µM | > 100 µM | > 100 µM | > 100 µM | > 100 µM | > 100 µM | > 100 µM | 86.5 µM | – | – | – | – | – | – | – | – | – | –
13 | OCC1NC(CO)C(O)C1O (configuration not stated) | > 100 µM | > 100 µM | > 100 µM | > 100 µM | > 100 µM | – | > 100 µM | > 100 µM | > 100 µM | > 100 µM | – | – | – | – | – | – | – | – | – | –
14 | O=C(Nc1ccc(C(F)(F)F)cc1[N+](=O)[O-])C(=O)Nn1c(=S)[nH]c2ccccc2c1=O | > 100 µM | – | > 100 µM | > 100 µM | > 100 µM | > 100 µM | > 100 µM | > 100 µM | > 100 µM | > 100 µM | – | – | – | – | – | – | – | – | – | –
15 | CC(C)N(CCNc1nc(C(Cl)(Cl)Cl)nc2cc(Cl)ccc12)C(C)C | 3.09 µM | 3.19 µM | – | 3.63 µM | 3.17 µM | 4.44 µM | 3.38 µM | 3.49 µM | 3.98 µM | 2.83 µM | 1.48 µM | 1.58 µM | – | 1.6 µM | 1.97 µM | 1.8 µM | 1.93 µM | 1.83 µM | 1.32 µM | 1.76 µM
